Measured values reported in US8921307B2, “Synthetic linear apelin mimetics for the treatment of heart failure” (priority 2012, dated 2014).
Where a SMILES comes first, the peptide text is derived from it. [ ]: non-standard residue; d: D form. The star is where a group is joined. pGlu = O=C1CC[C@@H](C(=O)O)N1; dNle = CCCC[C@@H](N)C(=O)O; Aib = CC(C)(N)C(=O)O; tBu = CC(C)(C)*

Tests used:
hAPJ = biological target: T1, hAPJ (Homo sapiens, UniProt P35414); test: hAPJ Calcium Flux Assay; format: cell-based; conditions: Chem-5 APJ stable cells, FLIPR calcium flux stimulation; read-out: hAPJ Ca^2+ Flux EC50
T1 sequence (P35414 1-380): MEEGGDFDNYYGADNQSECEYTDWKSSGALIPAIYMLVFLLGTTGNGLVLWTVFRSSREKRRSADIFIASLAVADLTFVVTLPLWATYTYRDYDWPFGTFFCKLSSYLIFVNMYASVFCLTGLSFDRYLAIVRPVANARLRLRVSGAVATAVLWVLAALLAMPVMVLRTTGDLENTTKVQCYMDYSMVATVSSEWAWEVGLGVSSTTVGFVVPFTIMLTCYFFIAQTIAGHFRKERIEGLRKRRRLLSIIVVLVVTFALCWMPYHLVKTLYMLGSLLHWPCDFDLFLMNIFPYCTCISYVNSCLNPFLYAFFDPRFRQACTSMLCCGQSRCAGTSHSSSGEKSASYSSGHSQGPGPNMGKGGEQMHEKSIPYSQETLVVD
Procedure: Chem-5 APJ stable cells (Millipore # HTS068C) were plated in 384-well format with 10,000 cells/well in 25 ul growth media, then grown 24 hours in a 37° C. tissue culture incubator. One hour before the assay, 25 ul/well FLIPR Calcium 4 dye (Molecular Devices R8142) with 2.5 mM probenecid was added, and cells were incubated one hour in a 37° C. tissue culture incubator. Peptides were solubilized in HBSS, HEPES & 0.1% BSA buffer, and serially-diluted 10-fold, from 50 uM to […], in triplicate. FLIPR Tetra was used to add peptide to the cells with dye (1:5, for final peptide concentrations ranging from 10 uM to […]). FLIPR dye inside the cells emitted fluorescence after binding to calcium, while fluorescence from outside the cells was masked. Fluorescence was measured using 470-495 excitation and 515-575 emission wavelengths on the FLIPR Tetra. Readings were done for 3 minutes total, beginning 10 seconds before the peptide addition. Maximum-minimum values were calculated and plotted for each peptide concentration, and GraphPad prism software was used to calculate EC50 values at the curve inflection points, for calcium flux stimulation by peptides.

[1] = Surrogate Activity-Based Plasma Stability Assay; format: in vitro ADME; conditions: rat, Surrogate activity-based Plasma stability t½
Procedure: Stability half-life was then calculated by the formula, t½=0.693÷k Surrogate Activity-Based Plasma Stability Assay: […]
2) Calculate slope of value above and […]

Row | SMILES | EC50 (hAPJ) [nM] | half-life [1] [h]
1 | CCCC[C@@H](NC(=O)[C@@H]1CCCCN1C(=O)CNC(=O)[C@H](CCCCN)NC(=O)[C@H](Cc1c[nH]cn1)NC(=O)[C@@H](C)NC(=O)[C@H](CC(C)C)NC(=O)[C@H](CCCNC(=N)N)NC(=O)[C@@H]1CCCN1C(=O)[C@H](CCCNC(=N)N)NC(=O)[C@@H]1CCC(=O)N1)C(=O)N[C@H](C)C(=O)N[C@H](Cc1ccccc1)C(=O)O [Example 1, pE-R-P-R-L-a-H-K-G-Pip-nle-a-f-OH] | 2.3 | > 16.7
2 | CCCC[C@@H](NC(=O)[C@@H]1CCCN1C(=O)CNC(=O)[C@H](CCCCN)NC(=O)[C@H](Cc1c[nH]cn1)NC(=O)[C@@H](C)NC(=O)[C@H](CC(C)C)NC(=O)[C@H](CCCNC(=N)N)NC(=O)[C@@H]1CCCN1C(=O)[C@@H](CCCNC(=N)N)NC(=O)[C@@H]1CCC(=O)N1)C(=O)N[C@H](C)C(=O)N[C@H](Cc1ccccc1)C(=O)O [Example 3, pE-r-P-R-L-a-H-K-G-P-nle-a-f-OH] | 797 | > 16.7
3 | CCCC[C@@H](NC(=O)[C@@H]1CCCN1C(=O)CNC(=O)[C@H](CCCCN)NC(=O)[C@H](Cc1c[nH]cn1)NC(=O)[C@@H](CSC(C)(C)C)NC(=O)[C@H](CC(C)C)NC(=O)[C@H](CCCNC(=N)N)NC(=O)[C@@H]1CCCN1C(=O)[C@H](CCCNC(=N)N)NC(=O)[C@@H]1CCC(=O)N1)C(=O)N[C@H](C)C(=O)N[C@H](Cc1ccccc1)C(=O)O [Example 7, pE-R-P-R-L-c(tBu)-H-K-G-P-nle-a-f-OH] ([pGlu]RPRL[dC](tBu)HKGP[dNle][dA][dF]-OH) | 693 | > 16.7
4 | CCCC[C@@H](NC(=O)[C@@H]1CCCN1C(=O)CNC(=O)[C@H](CCCCN)NC(=O)[C@H](Cc1c[nH]cn1)NC(=O)[C@@H](CC(=O)O)NC(=O)[C@H](CC(C)C)NC(=O)[C@H](CCCNC(=N)N)NC(=O)[C@@H]1CCCN1C(=O)[C@H](CCCNC(=N)N)NC(=O)[C@@H]1CCC(=O)N1)C(=O)N[C@H](C)C(=O)N[C@H](Cc1ccccc1)C(=O)O [Example 8, pE-R-P-R-L-d-H-K-G-P-nle-a-f-OH] ([pGlu]RPRL[dD]HKGP[dNle][dA][dF]-OH) | 7.7 | > 16.7
5 | CCCC[C@@H](NC(=O)[C@@H]1CCCN1C(=O)CNC(=O)[C@H](CCCCN)NC(=O)[C@H](Cc1c[nH]cn1)NC(=O)[C@@H](C)NC(=O)[C@H](CC(C)C)NC(=O)[C@H](CCCNC(=N)N)NC(=O)[C@@H]1C[C@@H](c2ccccc2)CN1C(=O)[C@H](CCCNC(=N)N)NC(=O)[C@@H]1CCC(=O)N1)C(=O)N[C@H](C)C(=O)N[C@H](Cc1ccccc1)C(=O)O [Example 9, pE-R-(trans-4-PhP)-R-L-a-H-K-G-P-nle-a-f-OH] | 9.9 | > 16.7
6 | CCCC[C@@H](NC(=O)[C@@H]1CCCN1C(=O)CNC(=O)[C@H](CCCCN)NC(=O)[C@H](Cc1c[nH]cn1)NC(=O)[C@@H](CC(C)C)NC(=O)[C@H](CC(C)C)NC(=O)[C@H](CCCNC(=N)N)NC(=O)[C@@H]1CCCN1C(=O)[C@H](CCCNC(=N)N)NC(=O)[C@@H]1CCC(=O)N1)C(=O)N[C@H](C)C(=O)N[C@H](Cc1ccccc1)C(=O)O [Example 10, pE-R-P-R-L-(D-Leu)-H-K-G-P-nle-a-f-OH] ([pGlu]RPRL[dL]HKGP[dNle][dA][dF]-OH) | 155 | > 16.7
7 | CCCC[C@@H](NC(=O)[C@@H]1CCCN1C(=O)CNC(=O)[C@H](CCCCN)NC(=O)[C@H](Cc1c[nH]cn1)NC(=O)[C@@H](CCCCN)NC(=O)[C@H](CC(C)C)NC(=O)[C@H](CCCNC(=N)N)NC(=O)[C@@H]1CCCN1C(=O)[C@H](CCCNC(=N)N)NC(=O)[C@@H]1CCC(=O)N1)C(=O)N[C@H](C)C(=O)N[C@H](Cc1ccccc1)C(=O)O [Example 11, pE-R-P-R-L-k-H-K-G-P-nle-a-f-OH] ([pGlu]RPRL[dK]HKGP[dNle][dA][dF]-OH) | 1060 | > 16.7
8 | CCCC[C@@H](NC(=O)[C@@H]1CCCN1C(=O)CNC(=O)[C@H](CCCCN)NC(=O)[C@H](Cc1c[nH]cn1)NC(=O)[C@@H](C)NC(=O)[C@H](CC(C)C)NC(=O)[C@H](CCCNC(=N)N)NC(=O)[C@@H]1CCCN1C(=O)[C@H](CCCNC(=N)N)NC(=O)[C@@H]1CCC(=O)N1)C(=O)N1CCC[C@@H]1C(=O)N[C@H](Cc1ccccc1)C(=O)O [Example 13, pE-R-P-R-L-a-H-K-G-P-nle-p-f-OH] ([pGlu]RPRL[dA]HKGP[dNle][dP][dF]-OH) | 1.1 | > 16.7
9 | CCCC[C@@H](NC(=O)[C@@H]1CCCN1C(=O)CNC(=O)[C@H](CCCCN)NC(=O)[C@H](Cc1c[nH]cn1)NC(=O)[C@@H](C)NC(=O)[C@H](CC(C)C)NC(=O)[C@H](CCCNC(=N)N)NC(=O)[C@@H]1CCCN1C(=O)[C@H](CCCNC(=N)N)NC(=O)[C@@H]1CCC(=O)N1)C(=O)N[C@H](CCC(=O)O)C(=O)N[C@H](Cc1ccccc1)C(=O)O [Example 19, pE-R-P-R-L-a-H-K-G-P-nle-e-f-OH] ([pGlu]RPRL[dA]HKGP[dNle][dE][dF]-OH) | 169 | > 16.7
10 | CCCC[C@@H](NC(=O)[C@@H]1CCCN1C(=O)CNC(=O)[C@H](CCCCN)NC(=O)[C@H](Cc1c[nH]cn1)NC(=O)[C@@H](C)NC(=O)[C@H](CC(C)C)NC(=O)[C@H](CCCNC(=N)N)NC(=O)[C@@H]1CCCN1C(=O)[C@H](CCCNC(=N)N)NC(=O)[C@@H]1CCC(=O)N1)C(=O)NCCc1ccccc1 [Example 32, pE-R-P-R-L-a-H-K-G-P-nle-NH(Phenethyl)] |  | 0.795

Continued, values first:

Row | EC50 (hAPJ) [nM] | half-life [1] [h] | SMILES
11 | 386 | > 16.7 | CCCC[C@@H](NC(=O)[C@@H]1CCCN1C(=O)CNC(=O)[C@H](CCCCN)NC(=O)[C@@H](C)NC(=O)[C@H](CO)NC(=O)[C@@H](CC(C)C)NC(=O)[C@H](CCCNC(=N)N)NC(=O)[C@@H]1CCCN1C(=O)[C@H](CCCNC(=N)N)NC(=O)[C@@H]1CCC(=O)N1)C(=O)N[C@H](C)C(=O)N[C@H](Cc1ccccc1)C(=O)O [Example 2, pE-R-P-R-(D-Leu)-S-a-K-G-P-nle-a-f-OH] ([pGlu]RPR[dL]S[dA]KGP[dNle][dA][dF]-OH)
12 | 79.9 | > 16.7 | CCCC[C@@H](NC(=O)[C@@H]1CCCN1C(=O)CNC(=O)[C@@H](CCCCN)NC(=O)C(C)(C)NC(=O)[C@H](CO)NC(=O)[C@H](CC(C)C)NC(=O)[C@H](CCCNC(=N)N)NC(=O)[C@@H]1CCCN1C(=O)[C@H](CCCNC(=N)N)NC(=O)[C@@H]1CCC(=O)N1)C(=O)N[C@H](C)C(=O)N[C@H](Cc1ccccc1)C(=O)O [Example 5, pE-R-P-R-L-S-Aib-k-G-P-nle-a-f-OH] ([pGlu]RPRLS[Aib][dK]GP[dNle][dA][dF]-OH)
13 | 3.1 | > 16.7 | CCCC[C@@H](NC(=O)[C@@H]1CCCN1C(=O)CNC(=O)[C@H](CCCCN)NC(=O)[C@H](Cc1c[nH]cn1)NC(=O)[C@@H](C)NC(=O)[C@H](CC(C)C)NC(=O)[C@H](CCCNC(=N)N)NC(=O)[C@@H]1CCCN1C(=O)[C@H](CCCNC(=N)N)NC(=O)[C@@H]1CCC(=O)N1)C(=O)N[C@H](Cc1ccccc1)C(=O)O [Example 6, pE-R-P-R-L-a-H-K-G-P-nle-f-OH]
14 | 0.9 | > 16.7 | CCCC[C@@H](NC(=O)[C@@H]1CCCN1C(=O)CNC(=O)[C@H](CCCCN)NC(=O)[C@H](Cc1c[nH]cn1)NC(=O)[C@@H](CO)NC(=O)[C@H](CC(C)C)NC(=O)[C@H](CCCNC(=N)N)NC(=O)[C@@H]1CCCN1C(=O)[C@H](CCCNC(=N)N)NC(=O)[C@@H]1CCC(=O)N1)C(=O)N[C@H](C)C(=O)N[C@H](Cc1ccccc1)C(=O)O [Example 12, pE-R-P-R-L-s-H-K-G-P-nle-a-f-OH] ([pGlu]RPRL[dS]HKGP[dNle][dA][dF]-OH)
15 | 2.1 | > 16.7 | CCCC[C@@H](NC(=O)[C@@H]1CCCN1C(=O)CNC(=O)[C@H](CCCCN)NC(=O)C(C)(C)NC(=O)[C@@H](C)NC(=O)[C@H](CC(C)C)NC(=O)[C@H](CCCNC(=N)N)NC(=O)[C@@H]1CCCN1C(=O)[C@H](CCCNC(=N)N)NC(=O)[C@@H]1CCC(=O)N1)C(=O)N[C@H](C)C(=O)N[C@H](Cc1ccccc1)C(=O)O [Example 15, pE-R-P-R-L-a-Aib-K-G-P-nle-a-f-OH] ([pGlu]RPRL[dA][Aib]KGP[dNle][dA][dF]-OH)
16 | 66.5 | 2.04 | CCCC[C@@H](NC(=O)[C@@H]1CCCN1C(=O)CNC(=O)[C@H](CCCCN)NC(=O)[C@H](Cc1c[nH]cn1)NC(=O)[C@@H](C)NC(=O)[C@H](CC(C)C)NC(=O)[C@H](CCCNC(=N)N)NC(=O)[C@@H]1CCCN1C(=O)[C@H](CCCNC(=N)N)NC(=O)[C@@H]1CCC(=O)N1)C(=O)N[C@@H](Cc1ccccc1)C(=O)O [Example 18, pE-R-P-R-L-a-H-K-G-P-nle-F-OH] ([pGlu]RPRL[dA]HKGP[dNle]F-OH)
